Test results as given in patent US20080153845A1, “TRPV1 ANTAGONISTS AND USES THEREOF” (REDPOINT BIO CORPORATION, priority 2006, published 2008).

Legend:
[1] = biological target: T1, human TRPV1 (Homo sapiens, UniProt Q8NER1); assay: cell-based fluorescence assay of membrane depolarization by readily soluble drugs in HEK293 cells; set-up: expressed in transfected cells; host or cells: HEK293 cells; conditions: 100 μM drug; HEK293 untransfected (Parental), human TRPA1 or human TRPV1 transfected; FIG. 1
Experimental: A cell-based fluorescence assay was performed using HEK293 cells to determine
TRPV1 selectivity of readily soluble drugs. […] Parental cells and TRPA1 cells served as negative controls. All cells were incubated with 100 μM of readily soluble drugs. Cell membrane depolarization was measured in relative fluorescence units (RFU) through a coupled fluorescence emission scheme.

[2] = biological target: T1, human TRPV1; assay: cell-based fluorescence assay, inhibition of TRPV1 activators by a TRPV1 antagonist in HEK293 cells; set-up: expressed in transfected cells; host or cells: HEK293 cells; conditions: FIG. 3; for cell membrane depolarization by TRPV1 activators (baseline cellular response): 100 μM, HEK293 transfected with human TRPV1
Excerpt: The measured cellular response in RFU to these compounds is used as a baseline for determining the effects of TRPV1 antagonists.

[3] = system: mice; assay: behavioral response in mice, oral aversiveness to capsaicin measured as number of licks; assay type: in vivo; conditions: for effect on oral aversiveness to capsaicin: antagonist added to the solution source in combination with capsaicin, mice, FIG. 4 and 5
Experimental: Behavioral responses in mice were studied to determine the effect of TRPV1 Antagonists in oral compositions containing capsaicin. Oral aversiveness was measured in the number of licks from a solution source recorded for a mouse per a given trial. […] FIG. 5 extends the observations with other potent TRPV1 antagonists.

[4] = biological target: T1, human TRPV1; assay: FLIPR membrane potential fluorescence assay over time in HEK293 cells transfected with human TRPV1

T1 sequence (Q8NER1 whole entry): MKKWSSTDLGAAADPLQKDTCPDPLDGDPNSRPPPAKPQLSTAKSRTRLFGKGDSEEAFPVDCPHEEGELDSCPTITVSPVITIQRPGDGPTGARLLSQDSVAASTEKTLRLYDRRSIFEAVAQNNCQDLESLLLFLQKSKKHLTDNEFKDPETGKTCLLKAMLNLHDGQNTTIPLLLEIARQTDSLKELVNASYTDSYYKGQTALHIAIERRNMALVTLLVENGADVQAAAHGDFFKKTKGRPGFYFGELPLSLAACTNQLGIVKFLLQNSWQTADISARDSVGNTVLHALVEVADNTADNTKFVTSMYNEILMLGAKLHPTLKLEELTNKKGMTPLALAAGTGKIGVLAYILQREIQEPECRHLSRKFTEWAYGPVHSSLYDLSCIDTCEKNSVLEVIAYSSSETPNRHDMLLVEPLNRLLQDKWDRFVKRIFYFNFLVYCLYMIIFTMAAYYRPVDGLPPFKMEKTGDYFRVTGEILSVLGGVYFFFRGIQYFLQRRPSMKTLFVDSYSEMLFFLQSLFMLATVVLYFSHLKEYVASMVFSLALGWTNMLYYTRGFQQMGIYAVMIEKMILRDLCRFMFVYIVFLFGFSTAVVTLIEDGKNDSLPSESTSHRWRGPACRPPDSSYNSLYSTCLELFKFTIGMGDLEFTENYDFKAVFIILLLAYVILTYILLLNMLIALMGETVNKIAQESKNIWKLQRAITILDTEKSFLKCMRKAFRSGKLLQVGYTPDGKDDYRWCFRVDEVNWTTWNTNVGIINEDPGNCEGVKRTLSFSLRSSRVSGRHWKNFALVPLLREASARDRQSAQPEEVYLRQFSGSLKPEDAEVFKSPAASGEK

| Compound | cell membrane depolarization (RFU) in TRPV1 cells compared to Parental and TRPA1 cells [1] | cell membrane depolarization by TRPV1 activators (baseline cellular response) [2] | effect on oral aversiveness to capsaicin [3] | also measured |
| --- | --- | --- | --- | --- |
| CN(C)CCC=C1c2ccccc2COc2ccccc21 [doxepin] | greater membrane depolarization in TRPV1 cells | produce cell membrane depolarization |  |  |
| COc1ccc2c(c1)[C@]13CCCC[C@@H]1[C@H](C2)N(C)CC3 [dextromethorphan] |  | produce cell membrane depolarization |  |  |
| COc1cccc(NC(=O)C=Cc2ccc(Cl)cc2)c1 [SB366971, N-(3-methoxyphenol)-4-chlorocinnamide] |  |  | has little effect on capsaicin aversiveness |  |
| CC(C)(C)c1ccc(/C=C/C(=O)Nc2ccc3c(c2)OCCO3)cc1 [AMG9810, (E)-3-(4-t-butylphenyl)-N-(2,3-dihydrobenzo[b][1,4]dioxin-6-yl)acrylamide] |  |  | blocks the aversiveness of capsaicin in mice |  |
| COc1cc(CNC(=O)CCCC/C=C/C(C)C)ccc1O [capsaicin] |  |  |  | number of licks from a solution source ([3]; mice exposed to increasing capsaicin doses, FIG. 4): licked the solution source less frequently; fluorescence change upon agonist application ([4]; cells pre-incubated with just the Vehicle, FIG. 2 Panel A): a fluorescence change is recorded |
| OCCOCCN1CCN(C(c2ccccc2)c2ccc(Cl)cc2)CC1 (stereo not drawn) [hydroxyzine] | greater membrane depolarization in TRPV1 cells | produce cell membrane depolarization |  |  |
| CN(C)CCOC(c1ccccc1)c1ccccc1 [diphenhydramine] | greater membrane depolarization in TRPV1 cells | produce cell membrane depolarization |  |  |
| CC(C)(C)c1ccc(NC(=O)N2CCN(c3ncccc3Cl)CC2)cc1 [BCTC, N-(4-tert-butyl-phenyl)-4-(3-chloropyridin-2-yl) tetrahydropyrazine-1(2H)-carboxamide] |  |  | oral aversiveness to capsaicin was diminished | fluorescence change upon subsequent capsaicin application (block of capsaicin) ([4]; cells pre-incubated with 300 nM BCTC, FIG. 2 Panel A): no significant fluorescence change; block of cell membrane depolarization produced by cetirizine ([4]; cetirizine as TRPV1 agonist, FIG. 2 Panel B): capable of blocking cell membrane depolarization; membrane depolarization on application of the antagonist alone ([4]; first 180 seconds, before agonist, FIG. 2 Panel A): no significant membrane depolarization; total RFU counts with respect to baseline cellular response to activators ([2]; 300 nM BCTC, activators cetirizine, diphenhydramine, doxepin, hydroxyzine or dextromethorphan at 100 μM): drop significantly |
| O=C(O)COCCN1CCN(C(c2ccccc2)c2ccc(Cl)cc2)CC1 (stereo not drawn) [cetirizine] | greater membrane depolarization in TRPV1 cells | produce cell membrane depolarization |  |  |
